Measured values taken from patent publication US20120190580A1, “TREATMENT OF PATIENTS AFTER STENT IMPLANTATION OR BALLOON DILATATION AND DRUG ELUTING STENTS” (MAX-PLANCK-GESELLSCHAFT ZUR FORDERUNG DER WISSENSCHAFTEN …, priority 2009, published 2012).
Entries after “also recorded” stand apart in the source; their conditions may differ.

What was measured:
Assay type in all cases: in vivo, mouse
[1] = test system: aortae of miR-143/145 KO mice; test: Affymetrix GeneChip mRNA expression analysis of aortae after chronic captopril or losartan; conditions: for FC Acta1 (1427735_a_at), treated miR-143/145 KO vs. WT / FC Arhgef17 (1433682_at), treated miR-143/145 KO vs. WT / FC Cald1 (1424768_at), treated miR-143/145 KO vs. WT / FC Camk2g (1423942_a_at), treated miR-143/145 KO vs. WT / FC Cap2 (1423222_at), treated miR-143/145 KO vs. WT / FC Clcn3 (1433486_at), treated miR-143/145 KO vs. WT / FC Efemp1 (1427183_at), treated miR-143/145 KO vs. WT / FC Itga3 (1455158_at), treated miR-143/145 KO vs. WT / FC Krt8 (1420647_a_at), treated miR-143/145 KO vs. WT / FC Mc2r (1422926_at), treated miR-143/145 KO vs. WT / FC Mylk (1425506_at), treated miR-143/145 KO vs. WT / FC Mylpf (1448371_at), treated miR-143/145 KO vs. WT / FC Myoc (1450468_at), treated miR-143/145 KO vs. WT / FC Neo1 (1440789_at), treated miR-143/145 KO vs. WT / FC Npr3 (1435184_at), treated miR-143/145 KO vs. WT / FC Pde3b (1433694_at), treated miR-143/145 KO vs. WT / FC Ppp2r1b (1419871_at), treated miR-143/145 KO vs. WT / FC Prkg1 (1449876_at), treated miR-143/145 KO vs. WT / FC Rock1 (1460729_at), treated miR-143/145 KO vs. WT / FC S100a8 (1419394_s_at), treated miR-143/145 KO vs. WT / FC S100a9 (1448756_at), treated miR-143/145 KO vs. WT / FC Serca1 (1419312_at), treated miR-143/145 KO vs. WT / FC Tnnc2 (1417464_at), treated miR-143/145 KO vs. WT / FC Unc5c (1449522_at), treated miR-143/145 KO vs. WT: aorta, chronic oral treatment 20 days; for number of the 507 deregulated probe sets returned to normal (WT) levels: mutant mice, 3 weeks (20 days) oral application, p > 0.05 vs. WT, n = 3
Excerpt: (§1) A 129S7AB2.2 genomic BAC clone (bMQ-446B20; Sanger) was used to generate the targeting vector. Recombination in SW102 cell was employed to replace the miR-143 to miR-145 genomic region by a galK cassette (45) that was amplified by the primers flanking premiR-143 to pre-miR-145 ([…] GCggcgcgcctcagcactgtcctgctcctt; […] ACggcgcgcctgttgacaattaatcatcggca). The genomic sequence was inserted via gap repair into a pKO targeting vector containing a DTA expression cassette and 450 bp homology arms for BAC recombination resulting in a vector containing 6.5 kb of sequence 5′ of miR-143 and 5.5 kb 3′ of miR-145 from genomic sequence […] to […]. The AscI restriction sites flanking the galK cassette were used to replace the galK by a floxed IRESIacZ-NeoR cassette. The vector was electroporated into MPI II ES cells (46) and recombinant clones were identified. Recombinant ES cells were injected into blastocysts and transferred to pseudopregnant mice. Chimeric animals were backcrossed to C57BL/6 mice. Heterozygous animals were used to obtain WT and KO littermates. ES cells and mice were genotyped using an EcoRV restriction digest and a 5′ outside probe amplified from genomic DNA using oligonucleotides ([…]; […]). […] The experiments were performed in accordance with German legislation on protection of animals and were approved by the local governmental animal care committee (Regierungspraesidium Darmstadt).
Tissues were dissected from PBS perfused animals and total RNA was isolated using the Trizol method (Invitrogen). RNA quality was checked on the Agilent 2100 Bioanalyser using the RNA 6000 Nano Kit. For mRNA expression analysis the Affymetrix GeneChip Mouse Genome 430 2.0 Array was employed with the respective one-cycle target labelling protocol. Data were analysed by the RMA algorithm using the Affymetrix Expression Console. […] 507 probe sets were identified with p<0.05 and FC>1.5 or FC<0.666. For miRNA expression analysis 384 3′ C6 aminolinker DNA-oligonucleotides complementary to published miRNA (Sanger, miRBase) sequences were synthesised and spotted with eight replicates per array to Nexterion E slides. Probe labelling and hybridization followed the Agilent miRNA labelling protocol, but P-CTTTT-Alexa555 or P-CTTTTAlexa647 oligonucleotides (MWG-Biotech) were ligated to the miRNAs. Arrays were scanned and analysed with an Axon 4200B scanner and GenePix Pro 6.0. Normalisation and data analysis was performed using Acuity 4.0. For multiple tissue comparison, miRNA from tissues was labelled with the Alexa555 dye, miRNA from whole E15.5 embryos labelled with Alexa647 dye was used as a reference. Data were linear normalized to a log ratio of 1 for the ratio of medians of let-7a-g and let-7i signals. The log 2 ratio data were centered for the single miRNA expression signals (by subtracting the row mean from each value), log 2 ratio data are visualized. For Northern blot analysis 3 μg (aorta 1.5 μg) of total RNA were separated on a 15% Polyacrylamide-Urea gel (Invitrogen) and blotted on Hybond XL (Amersham). miR-145, miR-143 and U6 antisense oligonucleotides were labeled with γ-ATP and PNK (NEB) and purified using Micro Bio-Spin® 6 columns (Biorad). Hybridization was performed in Ultrahyb hybridization buffer (Ambion) at 30° C. over night. Blots were washed 2 times in 2×SSC/0.1% SDS at 25° C. (5 min) and at 42° C. (15 min). Signals were detected using a BAS-2500 imager (Fujifilm).

[2] = test system: femoral arteries from KO mice; test: Myograph: contractility of isolated femoral artery rings from mice chronically treated with captopril
Excerpt: as §1
Isolated segments of femoral and mesenteric arteries were examined in an isometric microvessel myograph as described previously (52). Mounted vessels were stimulated with 80 mM K+, 30 nM angiotensin II or increasing concentrations of phenylephrine (100 nM to 10 μM). The pCa-force relationships (13, 14) were obtained in permeabilized mouse femoral artery segments. In brief, arteries were permeabilized for 30 minutes using 0.5% Triton X-100 in relaxation solution. The latter consisted of (in mM): EGTA 1, Pipes 30, Na2ATP 5.16, MgCl2 7.31, sodium creatine phosphate 10 and potassium gluconate 74.1. For contraction curves the buffer was supplemented with 160 U/ml calmodulin and 100 U/ml creatine phosphokinase. The concentration of free Ca2+ ions was calculated as described previously (53).

[3] = test system: miR-143/145-deficient mice; test: Hemodynamic measurements by aortic catheterization under isoflurane, acute ACE inhibition; conditions: miR-143/145 KO animals compared with WT, isoflurane anaesthesia, captopril via jugular vein
Procedure: Aortic catheterization was performed using a 1.4 F pressure-volume catheter. Data were recorded and analyzed with Chart v5.4 as described before (51). Mice were anaesthetized with isoflurane (2 vol % in O2) and their body temperature was kept at 37° C. as monitored by a rectal probe. Captopril (30 mg/kg body weight, 50 μl) and angiotensin II (5 to 50000 ng/kg body weight, 50 μl) were applied via the left jugular vein. For measurements of conscious, unrestrained mice, hemodynamic parameters were recorded by telemetry (DSI, Transoma Medical, USA, TA11PA-C10 transmitters) after a recovery period from surgery of more than 7 days. Recordings were obtained every 2 minutes for 20 seconds at a sampling frequency of 1000 Hz and were analyzed for day (07:00-19:00) and nighttime (19:00-07:00) periods, respectively, to evaluate circadian variation in hemodynamics.

[4] = KO femoral arteries, chronic captopril
[5] = mutant (KO) femoral arteries, captopril treatment vs. KO untreated

SMILES	FC Acta1 (1427735_a_at), treated miR-143/145 KO vs. WT [1]	FC Arhgef17 (1433682_at), treated miR-143/145 KO vs. WT [1]	FC Cald1 (1424768_at), treated miR-143/145 KO vs. WT [1]	FC Camk2g (1423942_a_at), treated miR-143/145 KO vs. WT [1]	FC Cap2 (1423222_at), treated miR-143/145 KO vs. WT [1]	FC Clcn3 (1433486_at), treated miR-143/145 KO vs. WT [1]	FC Efemp1 (1427183_at), treated miR-143/145 KO vs. WT [1]	FC Itga3 (1455158_at), treated miR-143/145 KO vs. WT [1]	FC Krt8 (1420647_a_at), treated miR-143/145 KO vs. WT [1]	FC Mc2r (1422926_at), treated miR-143/145 KO vs. WT [1]	FC Mylk (1425506_at), treated miR-143/145 KO vs. WT [1]	FC Mylpf (1448371_at), treated miR-143/145 KO vs. WT [1]	FC Myoc (1450468_at), treated miR-143/145 KO vs. WT [1]	FC Neo1 (1440789_at), treated miR-143/145 KO vs. WT [1]	FC Npr3 (1435184_at), treated miR-143/145 KO vs. WT [1]	FC Pde3b (1433694_at), treated miR-143/145 KO vs. WT [1]	FC Ppp2r1b (1419871_at), treated miR-143/145 KO vs. WT [1]	FC Prkg1 (1449876_at), treated miR-143/145 KO vs. WT [1]	FC Rock1 (1460729_at), treated miR-143/145 KO vs. WT [1]	FC S100a8 (1419394_s_at), treated miR-143/145 KO vs. WT [1]	further results
CCCCc1nc(Cl)c(CO)n1Cc1ccc(-c2ccccc2-c2nn[nH]n2)cc1 [losartan]	0.76	1.11	1.53	1.17	1.36	1.27	0.71	0.84	1.00	0.70	1.06	1.05	0.76	1.27	1.68	0.87	0.65	1.16	1.77	1.83	FC S100a9 (1448756_at), treated miR-143/145 KO vs. WT [1]: 1.64; FC Serca1 (1419312_at), treated miR-143/145 KO vs. WT [1]: 0.82; FC Tnnc2 (1417464_at), treated miR-143/145 KO vs. WT [1]: 1.51; FC Unc5c (1449522_at), treated miR-143/145 KO vs. WT [1]: 0.80; number of the 507 deregulated probe sets returned to normal (WT) levels [1]: 220
C[C@H](CS)C(=O)N1CCC[C@H]1C(=O)O [captopril]	0.87	0.82	1.09	0.87	0.77	1.09	1.22	0.76	1.09	1.23	0.90	0.77	0.99	1.07	1.00	1.04	0.81	1.12	0.99	0.81	FC S100a9 (1448756_at), treated miR-143/145 KO vs. WT [1]: 0.78; FC Serca1 (1419312_at), treated miR-143/145 KO vs. WT [1]: 0.72; FC Tnnc2 (1417464_at), treated miR-143/145 KO vs. WT [1]: 1.13; FC Unc5c (1449522_at), treated miR-143/145 KO vs. WT [1]: 0.63; number of the 507 deregulated probe sets returned to normal (WT) levels [1]: 248; angiotensin II-induced contraction after ACE inhibition [2, 4]: 9 % of K+ contraction; maximal force of contraction generated by K+-induced depolarization [2, 4]: No change; also recorded: did not improve; phenylephrine-effects after ACE inhibition [2, 4]: 46 % of the K+ contraction; Maximal angiotensin II-induced force of contraction ([2]; captopril-treated WT vessels, femoral artery, 20 day oral treatment): 3.4±0.6 mN; Maximal angiotensin II-induced force of contraction ([2]; femoral arteries from miR-143/145 KO mice after captopril treatment, 20 days oral): 0.30±0.05 mN; angiotensin II induced contractile responses [2, 5]: significantly improved; also recorded: markedly improved; contractile response to phenylephrine [2, 5]: improved responses; also recorded: markedly improved; diastolic pressure after acute inhibition of ACE [3]: stronger decrease; also recorded: pronounced reduction
